For the assay, the target named is HPK full length, T165E S171E (Homo sapiens (Human), UniProt Q92918, S171E/T165E). The assay can be described thus: HPK1-FL HTRF enzymatic assay ("HTRF"). Format: biochemical. Conditions: ATP 1 mM. Summed up: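 Full-length HPK1 (T165E/S171E) was preincubated 30 min with compound, then reacted 60 min with biotin-SLP-76 and 1 mM ATP. Phospho-SLP-76 was detected by HTRF (Eu-anti-pSLP76 antibody, SA-XL665) after a further 60 min.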
A general note: TR-FRET usually uses a lanthanide donor and a delayed reading to cut background.

Each structure is given as a SMILES string. Where two headings read alike, the source gives them in different places.

Usually Ki stands for the equilibrium dissociation constant of an inhibitor or competing ligand from its target.

HPK full length, T165E S171E, sequence (Q92918 whole entry T165E/S171E, looked up): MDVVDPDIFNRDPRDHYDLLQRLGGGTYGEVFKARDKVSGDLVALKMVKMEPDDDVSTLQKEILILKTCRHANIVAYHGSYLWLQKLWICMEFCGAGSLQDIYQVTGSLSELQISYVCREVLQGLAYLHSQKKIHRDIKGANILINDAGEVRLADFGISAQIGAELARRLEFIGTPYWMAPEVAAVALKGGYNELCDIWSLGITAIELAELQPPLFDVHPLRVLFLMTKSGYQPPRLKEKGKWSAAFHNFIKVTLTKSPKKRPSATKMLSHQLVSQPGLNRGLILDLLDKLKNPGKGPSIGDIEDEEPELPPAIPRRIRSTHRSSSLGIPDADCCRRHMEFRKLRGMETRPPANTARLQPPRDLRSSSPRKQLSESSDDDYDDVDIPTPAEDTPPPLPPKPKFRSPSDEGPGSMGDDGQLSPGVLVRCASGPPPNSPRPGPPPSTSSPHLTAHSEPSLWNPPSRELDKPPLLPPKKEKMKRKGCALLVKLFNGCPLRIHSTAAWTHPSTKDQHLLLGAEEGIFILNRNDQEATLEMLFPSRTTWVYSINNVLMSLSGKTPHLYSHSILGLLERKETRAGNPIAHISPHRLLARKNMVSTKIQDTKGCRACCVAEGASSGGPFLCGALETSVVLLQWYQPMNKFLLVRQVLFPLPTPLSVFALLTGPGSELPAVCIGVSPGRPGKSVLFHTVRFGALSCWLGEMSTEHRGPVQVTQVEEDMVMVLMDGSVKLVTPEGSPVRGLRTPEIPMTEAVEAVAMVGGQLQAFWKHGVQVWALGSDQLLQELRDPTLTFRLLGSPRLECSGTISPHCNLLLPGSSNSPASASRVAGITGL

Regarding `Cc1c(-c2cc3cc(NC(=O)N[C@@H]4CCOC[C@@H]4F)ncc3c(N)c2F)cnc2c1NCCO2` (single isomer, unassigned) [Compound 747b], where the note is “HPK1 Ki”, the Ki was under 0.013 nM.

Consider `CO[C@@H]1COCC[C@@H]1NC(=O)Nc1cc2cc(-c3cnc4c(c3C)NCCO4)c(F)c(N)c2cn1` (single isomer, unassigned) [Compound 750a], for which, for the setting “read-out: HPK1 Ki”, the Ki turned out to be 0.96 nM.

For the molecule `CO[C@H]1COCC[C@H]1NC(=O)Nc1cc2cc(-c3cnc4c(c3C)NCCO4)c(F)c(N)c2cn1` (single isomer, unassigned) [Compound 750b], the Ki (read-out: HPK1 Ki) is under 0.013 nM.

On to `Cc1c(-c2cc3cc(NC(=O)OC4CN(C)C4)ncc3c(N)c2F)cnc2c1NCCO2` [Compound 402, 1-Methylazetidin-3-yl (8-amino-7-fluoro-6-(8-methyl-2,3-dihydro-1H-pyrido[2,3-b][1,4]oxazin-7-yl)isoquinolin-3-yl)carbamate], for which, for the setting “read-out: HPK1 Ki”, the Ki is 0.11 nM.

Molecule `Cc1c(-c2cc3cc(NC(=O)O[C@H]4CCOC4)ncc3c(N)c2F)cnc2c1NCCO2` [Compound 403b, (S)-Tetrahydrofuran-3-yl (8-amino-7-fluoro-6-(8-methyl-2,3-dihydro-1H-pyrido[2,3-b][1,4]oxazin-7-yl)isoquinolin-3-yl)carbamate] returned an inhibition constant (Ki) (HPK1 Ki) of 0.064 nM.

In the case of `Cc1c(-c2cc3cc(NC(=O)OC4CCNCC4)ncc3c(N)c2F)cnc2c1NCCO2` [Compound 404, Piperidin-4-yl (8-amino-7-fluoro-6-(8-methyl-2,3-dihydro-1H-pyrido[2,3-b][1,4]oxazin-7-yl)isoquinolin-3-yl)carbamate], under “read-out: HPK1 Ki”, the Ki was 0.03 nM.

Consider `Cc1c(-c2cc3cc(NC(=O)OC4CC5COCC(C4)N5C)ncc3c(N)c2F)cnc2c1NCCO2` (centres unmarked) [Compound 406, 9-Methyl-3-oxa-9-azabicyclo[3.3.1]nonan-7-yl (8-amino-7-fluoro-6-(8-methyl-2,3-dihydro-1H-pyrido[2,3-b][1,4]oxazin-7-yl)isoquinolin-3-yl)carbamate], for which, under “read-out: HPK1 Ki”, the inhibitory constant (Ki) was found to be 0.4 nM.

`Cc1c(-c2cc3cc(NC(=O)OC4CCN(C)CC4)ncc3c(N)c2F)cnc2c1NCCO2` [Compound 407, 1-Methylpiperidin-4-yl (8-amino-7-fluoro-6-(8-methyl-2,3-dihydro-1H-pyrido[2,3-b][1,4]oxazin-7-yl)isoquinolin-3-yl)carbamate]: the inhibition constant Ki (read-out: HPK1 Ki) amounted to 0.03 nM.

`Cc1c(-c2cc3cc(NC(=O)O[C@H]4CCC(=O)N(C)C4)ncc3c(N)c2F)cnc2c1NCCO2` [Compound 409a, (S)-1-Methyl-6-oxopiperidin-3-yl (8-amino-7-fluoro-6-(8-methyl-2,3-dihydro-1H-pyrido[2,3-b][1,4]oxazin-7-yl)isoquinolin-3-yl)carbamate]: where the note is “read-out: HPK1 Ki”, the inhibitory constant (Ki) is 0.053 nM.

For `Cc1c(-c2cc3cc(NC(=O)O[C@@H]4CCN(C)C4)ncc3c(N)c2F)cnc2c1NCCO2` [Compound 411b, (R)-1-Methylpyrrolidin-3-yl (8-amino-7-fluoro-6-(8-methyl-2,3-dihydro-1H-pyrido[2,3-b][1,4]oxazin-7-yl)isoquinolin-3-yl)carbamate], the inhibitory constant (Ki) (read-out: HPK1 Ki) amounted to 0.2 nM.

Turning to `Cc1c(-c2cc3cc(NC(=O)OC4CCOCC4)ncc3c(N)c2F)cnc2c1NCCC2O` (centres unmarked) [Compound 413, Tetrahydro-2H-pyran-4-yl (8-amino-7-fluoro-6-(8-hydroxy-4-methyl-5,6,7,8-tetrahydro-1,5-naphthyridin-3-yl)isoquinolin-3-yl)carbamate], the Ki (read-out: HPK1 Ki) was found to be 0.65 nM.

As to `Cc1c(-c2cc3cc(NC(=O)O[C@H]4CCCN(C)C4)ncc3c(N)c2F)cnc2c1NCCO2` [Compound 416b, (5)-1-Methylpiperidin-3-yl (8-amino-7-fluoro-6-(8-methyl-2,3-dihydro-1H-pyrido[2,3-b][1,4]oxazin-7-yl)isoquinolin-3-yl)carbamate], the Ki (read-out: HPK1 Ki) is 0.075 nM.

For the molecule `Cc1c(-c2cc3cc(NC(=O)OC4CC5(C4)CN(C)C5)ncc3c(N)c2F)cnc2c1NCCO2` [Compound 417, 2-Methyl-2-azaspiro[3.3]heptan-6-yl (8-amino-7-fluoro-6-(8-methyl-2,3-dihydro-1H-pyrido[2,3-b][1,4]oxazin-7-yl)isoquinolin-3-yl)carbamate], the inhibition constant (Ki) (read-out: HPK1 Ki) was under 0.013 nM.

Take `Cc1c(-c2cc3cc(NC(=O)OC4CN(C(C)C)C4)ncc3c(N)c2F)cnc2c1NCCO2` [Compound 419, (1-Isopropylazetidin-3-yl) N-[8-amino-7-fluoro-6-(8-methyl-2,3-dihydro-1H-pyrido[2,3-b][1,4]oxazin-7-yl)-3-isoquinolyl]carbamate]: the inhibition constant (Ki) (read-out: HPK1 Ki) was found to be 0.061 nM.

Regarding `Cc1c(-c2cc3cc(NC(=O)OC4CN(CC(F)(F)F)C4)ncc3c(N)c2F)cnc2c1NCCO2` [Compound 420, 1-(2,2,2-Trifluoroethyl)azetidin-3-yl (8-amino-7-fluoro-6-(8-methyl-2,3-dihydro-1H-pyrido[2,3-b][1,4]oxazin-7-yl)isoquinolin-3-yl)carbamate], the Ki (read-out: HPK1 Ki) was under 0.013 nM.

Turning to `Cc1c(-c2cc3cc(NC(=O)OC4CCN(C5COC5)CC4)ncc3c(N)c2F)cnc2c1NCCO2` [Compound 421, 1-(Oxetan-3-yl)piperidin-4-yl (8-amino-7-fluoro-6-(8-methyl-2,3-dihydro-1H-pyrido[2,3-b][1,4]oxazin-7-yl)isoquinolin-3-yl)carbamate], the inhibitory constant (Ki) (read-out: HPK1 Ki) was under 0.013 nM.

For the molecule `Cc1c(-c2cc3cc(NC(=O)OC4CCN(CC(F)(F)F)CC4)ncc3c(N)c2F)cnc2c1NCCO2` [Compound 422, 1-(2,2,2-Trifluoroethyl)piperidin-4-yl (8-amino-7-fluoro-6-(8-methyl-2,3-dihydro-1H-pyrido[2,3-b][1,4]oxazin-7-yl)isoquinolin-3-yl)carbamate], the Ki (read-out: HPK1 Ki) came out at 0.023 nM.

On to `Cc1c(-c2cc3cc(NC(=O)OC4CC5(CCN(C)CC5)C4)ncc3c(N)c2F)cnc2c1NCCC2` [Compound 423, (7-Methyl-7-azaspiro[3.5]nonan-2-yl) N-[8-amino-7-fluoro-6-(4-methyl-5,6,7,8-tetrahydro-1,5-naphthyridin-3-yl)-3-isoquinolyl]carbamate], for which the Ki (read-out: HPK1 Ki) was under 0.013 nM.

For `CC(=O)N1CC2(CC(OC(=O)Nc3cc4cc(-c5cnc6c(c5C)NCCO6)c(F)c(N)c4cn3)C2)C1` [Compound 424, 2-Acetyl-2-azaspiro[3.3]heptan-6-yl (8-amino-7-fluoro-6-(8-methyl-2,3-dihydro-1H-pyrido[2,3-b][1,4]oxazin-7-yl)isoquinolin-3-yl)carbamate], the Ki (read-out: HPK1 Ki) is under 0.013 nM.

For `Cc1c(-c2cc3cc(NC(=O)OC4CC5(C4)CN(C)C5)ncc3c(N)c2F)cnc2c1NCCC2` [Compound 425, 2-Methyl-2-azaspiro[3.3]heptan-6-yl (8-amino-7-fluoro-6-(4-methyl-5,6,7,8-tetrahydro-1,5-naphthyridin-3-yl)isoquinolin-3-yl)carbamate], under “read-out: HPK1 Ki”, the inhibition constant (Ki) was under 0.013 nM.

For the molecule `CC(=O)N1CC(OC(=O)Nc2cc3cc(-c4cnc5c(c4C)NCCO5)c(F)c(N)c3cn2)C1` [Compound 426, (1-Acetylazetidin-3-yl) N-[8-amino-7-fluoro-6-(8-methyl-2,3-dihydro-1H-pyrido[2,3-b][1,4]oxazin-7-yl)-3-isoquinolyl]carbamate], the inhibitory constant (Ki) (read-out: HPK1 Ki) is under 0.013 nM.

Consider `Cc1c(-c2cc3cc(NC(=O)OC4CC5(CCN(C)CC5)C4)ncc3c(N)c2F)cnc2c1NCCO2` [Compound 427, 7-Methyl-7-azaspiro[3.5]nonan-2-yl (8-amino-7-fluoro-6-(8-methyl-2,3-dihydro-1H-pyrido[2,3-b][1,4]oxazin-7-yl)isoquinolin-3-yl)carbamate], for which the Ki (read-out: HPK1 Ki) is under 0.013 nM.

For `Cc1c(-c2cc3cc(NC(=O)OC4CC5(CCN(C)C5)C4)ncc3c(N)c2F)cnc2c1NCCO2` (centres unmarked) [Compound 428, 6-Methyl-6-azaspiro[3.4]octan-2-yl (8-amino-7-fluoro-6-(8-methyl-2,3-dihydro-1H-pyrido[2,3-b][1,4]oxazin-7-yl)isoquinolin-3-yl)carbamate], the inhibition constant Ki (read-out: HPK1 Ki) is under 0.013 nM.

`CC(=O)N1CC(OC(=O)Nc2cc3cc(-c4cnc5c(c4C)NCCC5)c(F)c(N)c3cn2)C1` [Compound 429, 1-Acetylazetidin-3-yl (8-amino-7-fluoro-6-(4-methyl-5,6,7,8-tetrahydro-1,5-naphthyridin-3-yl)isoquinolin-3-yl)carbamate formic acid]: the Ki (read-out: HPK1 Ki) was determined as 0.028 nM.

As to `Cc1c(-c2cc3cc(NC(=O)OC4CC5(CCN(C6COC6)CC5)C4)ncc3c(N)c2F)cnc2c1NCCC2` [Compound 430, 7-(Oxetan-3-yl)-7-azaspiro[3.5]nonan-2-yl (8-amino-7-fluoro-6-(4-methyl-5,6,7,8-tetrahydro-1,5-naphthyridin-3-yl)isoquinolin-3-yl)carbamate], for the setting “read-out: HPK1 Ki”, the inhibition constant Ki was under 0.013 nM.

For `Cc1c(-c2cc3cc(NC(=O)OC4C5CC4CN(C)C5)ncc3c(N)c2F)cnc2c1NCCO2` (centres unmarked) [Compound 431, 3-Methyl-3-azabicyclo[3.1.1]heptan-6-yl (8-amino-7-fluoro-6-(8-methyl-2,3-dihydro-1H-pyrido[2,3-b][1,4]oxazin-7-yl)isoquinolin-3-yl)carbamate], the Ki (read-out: HPK1 Ki) was found to be 2.3 nM.

On to `Cc1c(-c2cc3cc(NC(=O)O[C@H]4[C@@H]5CN(C)C[C@@H]54)ncc3c(N)c2F)cnc2c1NCCO2` [Compound 432a, (1R,5S,6s)-3-Methyl-3-azabicyclo[3.1.0]hexan-6-yl (8-amino-7-fluoro-6-(8-methyl-2,3-dihydro-1H-pyrido[2,3-b][1,4]oxazin-7-yl)isoquinolin-3-yl)carbamate], for which the inhibition constant Ki (read-out: HPK1 Ki) was under 0.013 nM.

Consider `Cc1c(-c2cc3cc(NC(=O)OC4CN(CC(F)F)C4)ncc3c(N)c2F)cnc2c1NCCO2` [Compound 434, 1-(2,2-Difluoroethyl)azetidin-3-yl (8-amino-7-fluoro-6-(8-methyl-2,3-dihydro-1H-pyrido[2,3-b][1,4]oxazin-7-yl)isoquinolin-3-yl)carbamate], for which the inhibition constant (Ki) (read-out: HPK1 Ki) was under 0.013 nM.

`Cc1c(-c2cc3cc(NC(=O)OC4CCN(C)CC4(C)C)ncc3c(N)c2F)cnc2c1NCCO2` (centres unmarked) [Compound 435, (1,3,3-Trimethyl-4-piperidyl) N-[8-amino-7-fluoro-6-(8-methyl-2,3-dihydro-1H-pyrido[2,3-b][1,4]oxazin-7-yl)-3-isoquinolyl]carbamate]: the inhibition constant (Ki) (read-out: HPK1 Ki) is 0.187 nM.

For the origin of these results see patent US11612606B2, “8-aminoisoquinoline compounds and uses thereof” (priority 2018, dated 2023).
